Measurements published in patent US12649722B2, “Herbicidal cinnoline derivatives” (SYNGENTA CROP PROTECTION AG, priority 2020, dated 2026).

What was measured:
Format in all cases: in vivo
Setaria faberi (SETFA) [1] = experiment: Post-emergence Test, SETFA; conditions: sprayed after 8 days cultivation, 1000 g/ha, evaluated after 13 days
Procedure: (§1) Seeds of a variety of test species are sown in standard soil in pots (Amaranthus retoflexus (AMARE), Solarium nigrum (SOLNI), Setaria faberi (SETFA), Lolium perenne (LOLPE), Echinochloa crus-galli (ECHCG), Ipornoea hederacea (IPOHE)). After 8 days cultivation under controlled conditions in a glasshouse (at 24° C./16° C., day/night; 14 hours light; 65% humidity), the plants are sprayed with an aqueous spray solution derived from the formulation of the technical active ingredient in acetone/water (50:50) solution containing 0.5% Tween 20 (polyoxyethylene sorbitan monolaurate, CAS RN 9005-64-5). Compounds are applied at 1000 g/ha unless otherwise stated. The test plants are then grown in a glasshouse under controlled conditions in a glasshouse (at 24° C./16° C., day/night; 14 hours light; 65% humidity) and watered twice daily. After 13 days the test is evaluated for the percentage damage caused to the plant. The biological activities are shown in the following table on a five-point scale (5=81-100%; 4=61-80%; 3=41-60%; 2=21-40%; 1=10-20%; 0=0%; −=not tested).

[2] = tested on: Amaranthus retoflexus (AMARE); experiment: Pre-emergence Test, AMARE; conditions: 1000 g/ha, evaluated after 13 days
Setaria faberi (SETFA) [3] = experiment: Pre-emergence Test, SETFA; conditions: 1000 g/ha, evaluated after 13 days
[4] = tested on: Echinochloa crus-galli (ECHCG); experiment: Post-emergence Test, ECHCG; conditions: sprayed after 8 days cultivation, 1000 g/ha, evaluated after 13 days
Procedure: as §1

ABUTH [5] = experiment: Post-emergence Test, ABUTH; conditions: sprayed after 8 days cultivation, 1000 g/ha, evaluated after 13 days
Procedure: [The procedure below names another target; the source lists this target under the same test.] as §1

ZEAMX [6] = experiment: Post-emergence Test, ZEAMX; conditions: sprayed after 8 days cultivation, 1000 g/ha, evaluated after 13 days
Procedure: [The procedure below names another target; the source lists this target under the same test.] as §1

[7] = tested on: Ipornoea hederacea (IPOHE); experiment: Pre-emergence Test, IPOHE; conditions: 1000 g/ha, evaluated after 13 days
ZEAMX [8] = experiment: Pre-emergence Test, ZEAMX; conditions: 1000 g/ha, evaluated after 13 days
[9] = tested on: Amaranthus retoflexus (AMARE); experiment: Post-emergence Test, AMARE; conditions: sprayed after 8 days cultivation, 1000 g/ha, evaluated after 13 days
Procedure: as §1

ABUTH [10] = experiment: Pre-emergence Test, ABUTH; conditions: 1000 g/ha, evaluated after 13 days
[11] = tested on: Echinochloa crus-galli (ECHCG); experiment: Pre-emergence Test, ECHCG; conditions: 1000 g/ha, evaluated after 13 days
[12] = tested on: Ipornoea hederacea (IPOHE); experiment: Post-emergence Test, IPOHE; conditions: sprayed after 8 days cultivation, 1000 g/ha, evaluated after 13 days
Procedure: as §1

SMILES | percentage damage caused to the plant, SETFA (Setaria faberi (SETFA) [1]) | percentage damage caused to the plant, AMARE [2] | percentage damage caused to the plant, SETFA (Setaria faberi (SETFA) [3]) | percentage damage caused to the plant, ECHCG [4] | percentage damage caused to the plant, ABUTH (ABUTH [5]) | percentage damage caused to the plant, ZEAMX (ZEAMX [6]) | percentage damage caused to the plant, IPOHE [7] | percentage damage caused to the plant, ZEAMX (ZEAMX [8]) | percentage damage caused to the plant, AMARE [9] | percentage damage caused to the plant, ABUTH (ABUTH [10]) | percentage damage caused to the plant, ECHCG [11] | percentage damage caused to the plant, IPOHE [12]
O=C(O)c1nn(-c2ccc(OC(F)(F)F)cc2)c2cccc(N3CCOCC3)c2c1=O [Compound P25, 5-morpholino-4-oxo-1-[4-(trifluoromethoxy)phenyl] cinnoline-3-carboxylic acid] | 0 (0=0%) | 0 (0=0%) | 0 (0=0%) | 0 (0=0%) | 0 (0=0%) | 0 (0=0%) | 0 (0=0%) | 0 (0=0%) | 0 (0=0%) | 0 (0=0%) | 0 (0=0%) | 0 (0=0%)
CCOC(=O)c1nn(-c2ccc(OC(F)(F)F)cc2)c2cccc(N3CCOCC3)c2c1=O [Compound P26, ethyl 5-morpholino-4-oxo-1-[4-(trifluoromethoxy)phenyl] cinnoline-3-carboxylate] | 0 (0=0%) | 0 (0=0%) | 0 (0=0%) | 1 (1=10-20%) | 0 (0=0%) | 0 (0=0%) | 0 (0=0%) | 0 (0=0%) | 0 (0=0%) | 0 (0=0%) | 0 (0=0%) | 0 (0=0%)
CCOC(=O)c1nn(-c2ccc(OC(F)(F)F)cc2)c2cccc(N3CCCCC3)c2c1=O [Compound P27, ethyl 4-oxo-5-(1-piperidyl)-1-[4-(trifluoromethoxy)phenyl] cinnoline-3-carboxylate] | 0 (0=0%) | 0 (0=0%) | 0 (0=0%) | 0 (0=0%) | 0 (0=0%) | 0 (0=0%) | 0 (0=0%) | 0 (0=0%) | 0 (0=0%) | 0 (0=0%) | 0 (0=0%) | 0 (0=0%)
CCOC(=O)c1nn(-c2ccc(OC(F)(F)F)cc2)c2cccc(N3CCCC3)c2c1=O [Compound P28, ethyl 4-oxo-5-pyrrolidin-1-yl-1-[4-(trifluoromethoxy)phenyl] cinnoline-3-carboxylate] | 0 (0=0%) | 0 (0=0%) | 0 (0=0%) | 0 (0=0%) | 0 (0=0%) | 0 (0=0%) | 0 (0=0%) | 0 (0=0%) | 0 (0=0%) | 0 (0=0%) | 0 (0=0%) | 0 (0=0%)
C=C(OCC)c1cccc2c1c(=O)c(C(=O)OCC)nn2-c1ccc(OC(F)(F)F)cc1 [Compound P29, ethyl 5-(1-ethoxyvinyl)-4-oxo-1-[4-(trifluoromethoxy)phenyl] cinnoline-3-carboxylate] | 3 (3=41-60%) | 1 (1=10-20%) | 5 (5=81-100%) | 4 (4=61-80%) | 1 (1=10-20%) | 2 (2=21-40%) | 1 (1=10-20%) | 1 (1=10-20%) | 0 (0=0%) | 1 (1=10-20%) | 4 (4=61-80%) | 0 (0=0%)
CCOC(=O)c1nn(-c2ccc(OC(F)(F)F)cc2)c2cccc(C(C)=O)c2c1=O [Compound P30, ethyl 5-acetyl-4-oxo-1-[4-(trifluoromethoxy)phenyl] cinnoline-3-carboxylate] | 4 (4=61-80%) | 1 (1=10-20%) | 5 (5=81-100%) | 4 (4=61-80%) | 3 (3=41-60%) | 3 (3=41-60%) | 1 (1=10-20%) | 4 (4=61-80%) | 1 (1=10-20%) | 2 (2=21-40%) | 4 (4=61-80%) | 2 (2=21-40%)
CCOC(=O)c1nn(-c2ccc(OC(F)(F)F)cc2)c2cccc(-n3cc(C(F)(F)F)cn3)c2c1=O [Compound P31, ethyl 4-oxo-1-[4-(trifluoromethoxy)phenyl]-5-[4-(trifluoromethyl)pyrazol-1-yl]cinnoline-3-carboxylate] | 0 (0=0%) | 0 (0=0%) | 0 (0=0%) | 0 (0=0%) | 0 (0=0%) | 0 (0=0%) | 0 (0=0%) | 0 (0=0%) | 0 (0=0%) | 0 (0=0%) | 0 (0=0%) | 0 (0=0%)
CCOC(=O)c1nn(-c2ccc(OC(F)(F)F)cc2)c2cccc(-n3cc(Cl)cn3)c2c1=O [Compound P32, ethyl 5-(4-chloropyrazol-1-yl)-4-oxo-1-[4-(trifluoromethoxy)phenyl] cinnoline-3-carboxylate] | 3 (3=41-60%) | 2 (2=21-40%) | 4 (4=61-80%) | 3 (3=41-60%) | 1 (1=10-20%) | 1 (1=10-20%) | 0 (0=0%) | 2 (2=21-40%) | 1 (1=10-20%) | 2 (2=21-40%) | 4 (4=61-80%) | 1 (1=10-20%)
